Measured values as given in patent US20230414826A1, “FIBRIN HYDROGELS” (Mayo Foundation for Medical Education and Research, priority 2020, published 2023).

Molecular target: T1, fibrin gels (40 mg/mL fibrinogen, 33 U/mL thrombin) (Homo sapiens, UniProt P02671+P02675+P02679)
T1 construct: purchased Ethicon (Evicel)
T1 sequence (P02671 20-644 isoform P02671-2 limits assumed): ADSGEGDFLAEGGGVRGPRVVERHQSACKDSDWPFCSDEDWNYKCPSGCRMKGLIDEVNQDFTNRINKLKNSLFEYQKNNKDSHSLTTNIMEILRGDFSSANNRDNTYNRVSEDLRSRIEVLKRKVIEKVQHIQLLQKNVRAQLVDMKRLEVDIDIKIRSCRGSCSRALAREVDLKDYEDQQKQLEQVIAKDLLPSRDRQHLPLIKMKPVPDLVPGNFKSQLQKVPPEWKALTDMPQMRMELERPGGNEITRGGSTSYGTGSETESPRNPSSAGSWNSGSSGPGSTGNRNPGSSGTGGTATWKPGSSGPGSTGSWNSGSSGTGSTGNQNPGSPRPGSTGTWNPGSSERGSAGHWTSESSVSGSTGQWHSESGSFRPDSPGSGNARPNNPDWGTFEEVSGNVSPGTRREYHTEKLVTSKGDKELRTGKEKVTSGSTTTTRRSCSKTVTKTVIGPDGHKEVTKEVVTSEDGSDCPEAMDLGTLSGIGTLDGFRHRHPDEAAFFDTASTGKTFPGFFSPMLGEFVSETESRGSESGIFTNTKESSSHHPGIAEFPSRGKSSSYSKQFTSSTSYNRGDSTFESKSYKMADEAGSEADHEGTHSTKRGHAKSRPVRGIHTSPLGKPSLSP
T1 sequence (P02675 45-491 limits assumed): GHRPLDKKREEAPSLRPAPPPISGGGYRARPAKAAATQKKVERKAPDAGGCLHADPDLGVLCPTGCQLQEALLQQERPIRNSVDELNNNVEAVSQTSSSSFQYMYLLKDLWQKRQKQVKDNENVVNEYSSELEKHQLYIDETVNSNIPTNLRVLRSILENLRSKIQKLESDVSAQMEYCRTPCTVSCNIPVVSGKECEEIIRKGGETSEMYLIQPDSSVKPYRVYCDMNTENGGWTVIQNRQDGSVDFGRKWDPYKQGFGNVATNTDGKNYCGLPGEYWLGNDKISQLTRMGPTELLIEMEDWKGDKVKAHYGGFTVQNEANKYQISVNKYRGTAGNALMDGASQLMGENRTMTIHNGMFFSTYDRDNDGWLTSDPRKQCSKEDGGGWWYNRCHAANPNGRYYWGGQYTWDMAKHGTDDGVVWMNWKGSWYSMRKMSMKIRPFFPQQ
T1 sequence (P02679 27-437 isoform P02679-2 limits assumed): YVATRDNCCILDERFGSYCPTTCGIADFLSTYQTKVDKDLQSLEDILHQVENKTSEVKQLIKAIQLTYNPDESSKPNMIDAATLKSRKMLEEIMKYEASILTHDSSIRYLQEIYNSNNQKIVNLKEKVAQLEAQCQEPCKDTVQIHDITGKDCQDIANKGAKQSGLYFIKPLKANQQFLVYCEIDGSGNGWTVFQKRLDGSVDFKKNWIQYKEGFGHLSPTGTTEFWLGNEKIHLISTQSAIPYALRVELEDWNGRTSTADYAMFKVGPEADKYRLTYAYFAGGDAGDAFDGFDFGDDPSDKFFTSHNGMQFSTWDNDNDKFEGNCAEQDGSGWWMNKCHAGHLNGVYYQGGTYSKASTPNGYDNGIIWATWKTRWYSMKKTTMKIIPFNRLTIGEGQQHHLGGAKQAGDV
Assay: Biexponential modeling of shear modulus (g′) versus time data
Details: biexponential model; for time shift parameter (xc): 0.12% dye, n=3; for G′1: fast rate associated parameter; for G′1 / r1 / G′2 / r2 / xc: avg ± sd, n = 3; for r1: fast rate constant; for G′2: slow rate associated parameter; for r2: slow rate constant; for xc: time shift parameter
Protocol: Modeling was performed using the shear modulus (g′) versus time data for each time sweep performed with gels with a final concentration of 40 mg/mL fibrinogen, 33 U/mL thrombin, and 0.12% dye. A biexponential model was used as described elsewhere (see, e.g., Wedgwood et al., Macromolecular Symposia, 334:117-25 (2013); and Moreno-Arotzena et al., Materials (Basel), 8:1636-51 (2015)). The following equation was used: […]
This equation model assumes a fast (1) and slow (2) kinetic rate. As such G′1 and G′2 are the respective rate associated parameters, r1 and r2 are the respective rates constants, and Xc is a time shift parameter. Modeling was performed using MATLAB (Mathworks; Natick, MA), using the model fit function. Parameters were defined with r1>r2 and xc as positive. Each sample run was best fitted to the model to generate an r^2>0.98.
Previous work has fitted fibrin gelation kinetics to a biexponential model (see, e.g., Moreno-Arotzena et al., Materials (Basel), 8:1636-51 (2015)). In this model, gelation, as measured by the shear modulus over time, consists of a fast and slow reaction rate. Each time sweep series was fitted to the biexponential model to determine the fast (1) and slow (2) associated parameters, reaction rates and time shift parameter (Table 2 and FIG. 9). The time shift parameters (xc) for the PBS, TB, EB, and PEG groups were 19.7±7.2, 62.9±9.7, 110.6±7.6, and 20.3±5.0 sec (n=3, p<0.001) (FIG. 9A). […] This re-affirms the shifted delay in gelation onset for TB and EB groups and confirms that the effect is not due to changes in molality. To understand if there is a change in reaction rates, the ratio of the fast to slow reaction rate was compared. The ratios, r1/r2, for PBS, TB, EB and PEG groups were […] (n=3, p=0.057) (FIG. 9B).

SMILES	time shift parameter (xc) [s]	G′1	r1	G′2	r2	xc
Cc1cc(-c2ccc(/N=N/c3ccc4c(S(=O)(=O)O)cc(S(=O)(=O)O)c(N)c4c3O)c(C)c2)ccc1/N=N/c1ccc2c(S(=O)(=O)O)cc(S(=O)(=O)O)c(N)c2c1O [EB, Evans Blue]	110.6 ± 7.6	927 ± 395	3720 ± 732	787 ± 210	739 ± 205	111 ± 8
Cc1cc(-c2ccc(/N=N/c3c(S(=O)(=O)O)cc4cc(S(=O)(=O)O)cc(N)c4c3O)c(C)c2)ccc1/N=N/c1c(S(=O)(=O)O)cc2cc(S(=O)(=O)O)cc(N)c2c1O [TB, Trypan Blue]	62.9 ± 9.7	1555 ± 92	2679 ± 366	800 ± 186	455 ± 131	63 ± 10
